Calls of active or inactive are those of the source.
Key:
[1] = biological target: Female germline-specific tumor suppressor gld-1 (Caenorhabditis elegans, UniProt Q17339); test: inhibitors of GLD-1 binding to TGE RNA, dose response, biochemical, fluorescence polarization, C. elegans (AID 2802);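 note: fluorescence polarization of labeled TGE RNA bound by purified gld-1 protein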
[2] = biological target: T1, Endoribonuclease toxin MazF (Escherichia coli K-12, UniProt P0AE70); test: fluorescent RNA oligo signal without MazF, dose response, counter-screen for MazEF activator project, biochemical, fluorescence, single-stranded RNase substrate (AID 588502); assay type: functional
T1 sequence (P0AE70 whole entry): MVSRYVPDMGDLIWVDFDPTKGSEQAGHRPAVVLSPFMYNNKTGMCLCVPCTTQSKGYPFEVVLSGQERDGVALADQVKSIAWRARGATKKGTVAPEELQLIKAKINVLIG

[3] = biological target: T1, Endoribonuclease toxin MazF; test: MazF toxin RNase activators, dose response, biochemical, fluorescence, single-stranded RNA substrate, uHTS hits (AID 588481); assay type: functional
Protein Rev = Protein Rev (Human immunodeficiency virus type 1 group M subtype B (isolate HXB2)(HIV-1), UniProt P04618); test: inhibitors of Rev binding to RRE RNA, dose response, biochemical, fluorescence polarization, HIV-1 (AID 434976); parameters: species or system Human immunodeficiency virus 1
Protein Rev, sequence (P04618 whole entry): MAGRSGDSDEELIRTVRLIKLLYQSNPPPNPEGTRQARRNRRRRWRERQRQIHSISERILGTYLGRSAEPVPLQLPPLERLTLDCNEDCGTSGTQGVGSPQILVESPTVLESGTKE

[4] = inhibitors of Ran–importin-beta complex, dose response, biochemical, plate reader, dry powder (AID 493048); parameters: species or system Homo sapiens
Phosphomannomutase 2 = Phosphomannomutase 2 (Homo sapiens, UniProt O15305); test: Counter screen SAR assay for PMM2 inhibitors via a fluorescence intensity assay. [Related pubchem assays (depositor defined):AID1545, AID1574]
Phosphomannomutase 2, sequence (O15305 whole entry): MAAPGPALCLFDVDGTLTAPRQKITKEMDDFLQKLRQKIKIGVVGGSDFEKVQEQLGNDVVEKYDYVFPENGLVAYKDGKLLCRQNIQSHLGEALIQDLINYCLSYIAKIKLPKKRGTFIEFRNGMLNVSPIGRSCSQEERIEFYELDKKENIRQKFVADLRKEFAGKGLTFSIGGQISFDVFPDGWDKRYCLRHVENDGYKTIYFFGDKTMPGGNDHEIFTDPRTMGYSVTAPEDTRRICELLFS

[5] = biological target: T2, Mannose-6-phosphate isomerase (Homo sapiens, UniProt P34949); test: PMI enzyme inhibitors, confirmation, biochemical, fluorescence intensity (AID 1535)
T2 sequence (P34949 whole entry): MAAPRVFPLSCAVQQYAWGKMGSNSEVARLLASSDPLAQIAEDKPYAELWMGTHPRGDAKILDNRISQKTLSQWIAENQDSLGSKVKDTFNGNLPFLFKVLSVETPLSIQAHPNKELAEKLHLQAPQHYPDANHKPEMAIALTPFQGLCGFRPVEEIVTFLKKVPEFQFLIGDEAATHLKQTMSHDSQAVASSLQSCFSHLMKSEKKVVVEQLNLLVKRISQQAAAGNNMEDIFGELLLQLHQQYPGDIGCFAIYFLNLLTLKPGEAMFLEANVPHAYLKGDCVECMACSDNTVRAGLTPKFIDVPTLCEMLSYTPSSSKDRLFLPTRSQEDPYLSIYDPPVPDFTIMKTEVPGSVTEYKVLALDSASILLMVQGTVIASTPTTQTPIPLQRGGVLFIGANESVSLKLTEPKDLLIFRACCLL

[6] = biological target: Phosphoethanolamine/phosphocholine phosphatase (Homo sapiens, UniProt Q8TCT1); test: SAR assay for compounds that inhibit PHOSPHO1. [Related pubchem assays (depositor defined):AID1545, AID1565, AID1574]
Phosphoethanolamine/phosphocholine phosphatase, sequence (Q8TCT1 whole entry): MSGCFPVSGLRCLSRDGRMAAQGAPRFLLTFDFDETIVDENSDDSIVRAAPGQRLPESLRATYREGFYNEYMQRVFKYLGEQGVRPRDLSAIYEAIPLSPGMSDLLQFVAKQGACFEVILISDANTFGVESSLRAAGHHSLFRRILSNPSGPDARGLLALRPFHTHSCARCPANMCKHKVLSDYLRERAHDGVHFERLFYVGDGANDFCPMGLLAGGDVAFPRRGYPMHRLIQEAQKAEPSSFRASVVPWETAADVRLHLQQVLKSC

Female germline-specific tumor suppressor gld-1, sequence (Q17339 whole entry): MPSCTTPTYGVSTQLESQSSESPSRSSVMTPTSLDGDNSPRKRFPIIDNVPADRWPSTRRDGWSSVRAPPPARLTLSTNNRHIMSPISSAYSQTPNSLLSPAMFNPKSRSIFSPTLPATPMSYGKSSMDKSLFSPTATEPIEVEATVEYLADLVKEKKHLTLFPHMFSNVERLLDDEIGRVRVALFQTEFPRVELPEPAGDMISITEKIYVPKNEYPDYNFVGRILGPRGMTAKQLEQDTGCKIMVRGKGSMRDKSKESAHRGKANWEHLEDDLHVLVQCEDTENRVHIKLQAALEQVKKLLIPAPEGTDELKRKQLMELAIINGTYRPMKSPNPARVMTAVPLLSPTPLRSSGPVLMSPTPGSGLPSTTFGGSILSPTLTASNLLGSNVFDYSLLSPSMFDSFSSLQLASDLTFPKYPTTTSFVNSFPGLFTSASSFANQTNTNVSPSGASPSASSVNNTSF

With `COc1ccc(N2CCCC2)c(NC(=O)c2ccc(Br)o2)c1` the IC50 [1] was 21.3 µM (inactive), the EC50 [2] was > 99 µM (inactive) and the EC50 [3] was > 99 µM (inactive). The IC50 (Protein Rev) was > 75.4 µM (not active).

For `Cc1ccc(S(=O)(=O)c2cc3c(=O)n4cccc(C)c4nc3n(C3CCCCC3)c2=N)cc1`, the AC50 [4] was 410 µM (active).

In the case of `O=c1c2ccccc2sn1-c1ccc(F)c(Cl)c1`, the IC50 (Phosphomannomutase 2) is reported as > 100 µM (inactive), the IC50 [5] is reported as > 50 µM (inactive) and the IC50 [6] is reported as 1.79 µM (inactive).

From ChEMBL document CHEMBL1201862, “PubChem BioAssay data set” (2004)
